Laboratory results published in patent US10759781B2, “Substituted guanidine derivatives” (UBE INDUSTRIES, LTD., priority 2015, dated 2020).
Structures can show the parent of a compound that is named as a salt.

molecular target: T1, Human VAP-1 enzyme (Homo sapiens, UniProt Q16853); test: Human VAP-1 enzyme inhibition test; type: biochemical; settings: 1 h; compound 30 nM; 14C-benzylamine 100 μM; read-out: inhibition ratio (human VAP-1 enzyme)
T1 construct: purchased R&D Systems, Inc
T1 sequence (Q16853 1-763): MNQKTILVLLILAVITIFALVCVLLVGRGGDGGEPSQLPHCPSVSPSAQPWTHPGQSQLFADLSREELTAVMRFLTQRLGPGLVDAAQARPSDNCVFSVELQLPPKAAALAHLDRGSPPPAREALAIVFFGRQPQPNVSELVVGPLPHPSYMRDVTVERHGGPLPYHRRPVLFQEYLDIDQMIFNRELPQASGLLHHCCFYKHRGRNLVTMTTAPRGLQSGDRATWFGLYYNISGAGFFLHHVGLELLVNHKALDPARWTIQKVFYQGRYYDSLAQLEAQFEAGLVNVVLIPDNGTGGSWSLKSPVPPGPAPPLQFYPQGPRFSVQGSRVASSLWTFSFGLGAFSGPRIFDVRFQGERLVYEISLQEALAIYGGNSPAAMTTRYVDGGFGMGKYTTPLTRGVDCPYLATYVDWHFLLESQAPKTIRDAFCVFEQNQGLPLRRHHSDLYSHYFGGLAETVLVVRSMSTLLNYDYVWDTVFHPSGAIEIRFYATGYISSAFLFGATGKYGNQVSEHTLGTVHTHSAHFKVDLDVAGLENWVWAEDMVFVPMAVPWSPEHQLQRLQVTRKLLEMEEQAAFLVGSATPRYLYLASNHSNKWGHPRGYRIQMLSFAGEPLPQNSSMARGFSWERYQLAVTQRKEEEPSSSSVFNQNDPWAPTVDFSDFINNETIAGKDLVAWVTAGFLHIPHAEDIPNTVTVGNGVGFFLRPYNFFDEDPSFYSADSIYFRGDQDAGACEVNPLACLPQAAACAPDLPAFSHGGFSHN
Protocol: Human VAP-1 enzyme inhibition test
This test was conducted by modifying the method of P. H. Yu et al. (Diabetologia 40 1243 (1997)). Human VAP-1 enzyme (R&D Systems, Inc.) was pre-incubated in a 96-well plate with the compound dissolved in dimethylsulfoxide at room temperature for 20 minutes. Next, in a solution to the final volume of 200 μL, the enzyme reaction solution was incubated with ^14C-benzylamine (final concentration 100 μM) at 37° C. for 1 hour. The reaction was terminated by the addition of 100 μL of 2 M citric acid solution to the reaction solution. The oxidative product was extracted using a toluene/ethyl acetate mixture and the radioactivity was measured with a liquid scintillation counter. The inhibition ratio of the compound was calculated using the following equation. Inhibition ratio={1−[VAP-1 enzyme activity after treatment with the compound]/[VAP-1 enzyme activity in the presence of dimethylsulfoxide alone without the compound]}×100

Structure (SMILES)	inhibition at 0.03 µM [%]
N=C(N)NC(=O)OCc1cccc(-c2cnc(N3CC(=NOCC(F)F)C3)nc2)c1F [Example 6, 3-(2-{3-[(2,2-Difluoroethoxy)imino]azetidin-1-yl}pyrimidin-5-yl)-2-fluorobenzyl carbamimidoylcarbamate]	≥ 50
N=C(N)NC(=O)OCc1cccc(-c2cnc(N3CC(=NOCC(F)(F)F)C3)nc2)c1F [Example 7, 2-Fluoro-3-(2-{3-[(2,2,2-trifluoroethoxy)imino]azetidin-1-yl}pyrimidin-5-yl)benzyl carbamimidoylcarbamate]	≥ 50
N=C(N)NC(=O)OCc1cccc(-c2cnc(N3CC(=NOCCCF)C3)nc2)c1F [Example 8, 2-Fluoro-3-(2-{3-[(3-fluoropropoxy)imino]azetidin-1-yl}pyrimidin-5-yl)benzyl carbamimidoylcarbamate]	≥ 50
CC(=O)OCCON=C1CN(c2ncc(-c3cccc(COC(=O)NC(=N)N)c3F)cn2)C1 [Example 25, 2-[({1-[5-(3-{[(Carbamimidoylcarbamoyl)oxy]methyl}-2-fluorophenyl)pyrimidin-2-yl]azetidin-3-ylidene}amino)oxy]ethyl acetate]	≥ 50
CON=C1CN(c2ncc(-c3cccc(COC(=O)NC(=N)N)c3F)cc2C#N)C1 [Example 43, 3-{5-Cyano-6-[3-(methoxyimino)azetidin-1-yl]pyridin-3-yl}-2-fluorobenzyl carbamimidoylcarbamate]	≥ 50
CON=C1CN(c2ncc(-c3cccc(COC(=O)NC(=N)N)c3F)cc2Cl)C1 [Example 44, 3-{5-Chloro-6-[3-(methoxyimino)azetidin-1-yl]pyridin-3-yl}-2-fluorobenzyl carbamimidoylcarbamate]	≥ 50
CON=C1CN(c2ncc(-c3cccc(COC(=O)NC(=N)N)c3F)cc2C(F)F)C1 [Example 45, 3-{5-(Difluoromethyl)-6-[3-(methoxyimino)azetidin-1-yl]pyridin-3-yl}-2-fluorobenzyl carbamimidoylcarbamate]	≥ 50
CON=C1CN(c2ncc(-c3cccc(COC(=O)NC(=N)N)c3F)cc2C2CC2)C1 [Example 46, 3-{5-Cyclopropyl-6-[3-(methoxyimino)azetidin-1-yl]pyridin-3-yl}-2-fluorobenzyl carbamimidoylcarbamate]	≥ 50
CCc1cc(-c2cccc(COC(=O)NC(=N)N)c2F)cnc1N1CC(=NOC)C1 [Example 47, 3-{5-Ethyl-6-[3-(methoxyimino)azetidin-1-yl]pyridin-3-yl}-2-fluorobenzyl carbamimidoylcarbamate]	≥ 50
COCc1cc(-c2cccc(COC(=O)NC(=N)N)c2F)cnc1N1CC(=NOC)C1 [Example 49, 2-Fluoro-3-{6-[3-(methoxyimino)azetidin-1-yl]-5-(methoxymethyl)pyridin-3-yl}benzyl carbamimidoylcarbamate]	≥ 50
CON=C1CN(c2ncc(-c3cccc(COC(=O)NC(=N)N)c3F)cc2OC)C1 [Example 50, 2-Fluoro-3-{5-methoxy-6-[3-(methoxyimino)azetidin-1-yl]pyridin-3-yl}benzyl carbamimidoylcarbamate]	≥ 50
N=C(N)NC(=O)OCc1cccc(-c2cnc(N3CC(=NOCCO)C3)nc2)c1F [Example 71, 2-Fluoro-3-(2-{3-[(2-hydroxyethoxy)imino]azetidin-1-yl}pyrimidin-5-yl)benzyl carbamimidoylcarbamate hydrochloride]	≥ 50
N=C(N)NC(=O)OCc1cccc(-c2cnc(N3CC(=NOCCCCO)C3)nc2)c1F [Example 73, 2-Fluoro-3-(2-{3-[(4-hydroxybutoxy)imino]azetidin-1-yl}pyrimidin-5-yl)benzyl carbamimidoylcarbamate]	≥ 50
N=C(N)NC(=O)OCc1cccc(-c2cnc(N3CC(=NOCCOCCO)C3)nc2)c1F [Example 74, 2-Fluoro-3-[2-(3-{[2-(2-hydroxyethoxy)ethoxy]imino}azetidin-1-yl)pyrimidin-5-yl]benzyl carbamimidoylcarbamate]	≥ 50
N=C(N)NC(=O)OCc1cccc(-c2cnc(N3CC(=NOCC(CO)CF)C3)nc2)c1F (stereo not shown) [Example 75, 2-Fluoro-3-[2-(3-{[3-fluoro-2-(hydroxymethyl)propoxy]imino}azetidin-1-yl)pyrimidin-5-yl]benzyl carbamimidoylcarbamate]	≥ 50
COC(CO)CCON=C1CN(c2ncc(-c3cccc(COC(=O)NC(=N)N)c3F)cn2)C1 (stereo not shown) [Example 76, 2-Fluoro-3-(2-{3-[(4-hydroxy-3-methoxybutoxy)imino]azetidin-1-yl}pyrimidin-5-yl)benzyl carbamimidoylcarbamate]	≥ 50
CC(=O)OCC(CO)CON=C1CN(c2ncc(-c3cccc(COC(=O)NC(=N)N)c3F)cn2)C1 (stereo not shown) [Example 77, 3-[({1-[5-(3-{[(Carbamimidoylcarbamoyl)oxy]methyl}-2-fluorophenyl)pyrimidin-2-yl]azetidin-3-ylidene}amino)oxy]-2-(hydroxymethyl)propyl acetate]	≥ 50
N=C(N)NC(=O)OCc1cccc(-c2cnc(N3CC(=NOCC(CO)CO)C3)nc2)c1F [Example 92, 2-Fluoro-3-[2-(3-{[3-hydroxy-2-(hydroxymethyl)propoxy]imino}azetidin-1-yl)pyrimidin-5-yl]benzyl carbamimidoylcarbamate]	≥ 50

Now from value to compound:

inhibition at 0.03 µM [%]	Structure (SMILES)
≥ 50	N=C(N)NC(=O)OCc1cccc(-c2cnc(N3CC(=NOCC(O)CO)C3)nc2)c1F (stereo not shown) [Example 93, 3-(2-{3-[(2,3-Dihydroxypropoxy)imino]azetidin-1-yl}pyrimidin-5-yl)-2-fluorobenzyl carbamimidoylcarbamate]
≥ 50	COCC(CO)CON=C1CN(c2ncc(-c3cccc(COC(=O)NC(=N)N)c3F)cn2)C1 (stereo not shown) [Example 100, 2-Fluoro-3-[2-(3-{[3-hydroxy-2-(methoxymethyl)propoxy]imino}azetidin-1-yl)pyrimidin-5-yl]benzyl carbamimidoylcarbamate]
≥ 50	N=C(N)NC(=O)OCc1cccc(-c2cnc(N3CC(=NOCC(F)CO)C3)c(F)c2)c1F (stereo not shown) [Example 103, 2-Fluoro-3-(5-fluoro-6-{3-[(2-fluoro-3-hydroxypropoxy)imino]azetidin-1-yl}pyridin-3-yl)benzyl carbamimidoylcarbamate]
≥ 50	COCC(O)CON=C1CN(c2ncc(-c3cccc(COC(=O)NC(=N)N)c3F)cn2)C1 (stereo not shown) [Example 104, 2-Fluoro-3-(2-{3-[(2-hydroxy-3-methoxypropoxy)imino]azetidin-1-yl}pyrimidin-5-yl)benzyl carbamimidoylcarbamate]
≥ 50	N=C(N)NC(=O)OCc1cccc(-c2cnc(N3CC(=NO)C3)c(F)c2)c1F [Example 107, 2-Fluoro-3-{5-fluoro-6-[3-(hydroxyimino)azetidin-1-yl]pyridin-3-yl}benzyl carbamimidoylcarbamate]
≥ 50	CC(C)(C)OC(=O)CON=C1CN(c2ncc(-c3cccc(COC(=O)NC(=N)N)c3F)cn2)C1 [Example 108, tert-Butyl 2-[({1-[5-(3-{[(carbamimidoylcarbamoyl)oxy]methyl}-2-fluorophenyl)pyrimidin-2-yl]azetidin-3-ylidene}amino)oxy]acetate]
≥ 50	CNC(=O)CON=C1CN(c2ncc(-c3cccc(COC(=O)NC(=N)N)c3F)cn2)C1 [Example 111, 2-Fluoro-3-[2-(3-{[2-(methylamino)-2-oxoethoxy]imino}azetidin-1-yl)pyrimidin-5-yl]benzyl carbamimidoylcarbamate]
≥ 50	N=C(N)NC(=O)OCc1cccc(-c2cnc(N3CC(=NOCCC(N)=O)C3)nc2)c1F [Example 112, 3-(2-{3-[(3-Amino-3-oxopropoxy)imino]azetidin-1-yl}pyrimidin-5-yl)-2-fluorobenzyl carbamimidoylcarbamate]
≥ 50	CNC(=O)CCON=C1CN(c2ncc(-c3cccc(COC(=O)NC(=N)N)c3F)cn2)C1 [Example 113, 2-Fluoro-3-[2-(3-{[3-(methylamino)-3-oxopropoxy]imino}azetidin-1-yl)pyrimidin-5-yl]benzyl carbamimidoylcarbamate]
≥ 50	CCOC(=O)CCCON=C1CN(c2ncc(-c3cccc(COC(=O)NC(=N)N)c3F)cn2)C1 [Example 114, Ethyl 4-[({1-[5-(3-{[(carbamimidoylcarbamoyl)oxy]methyl}-2-fluorophenyl)pyrimidin-2-yl]azetidin-3-ylidene}amino)oxy]butanoate]
